Measured values as given in patent US10226041B2, “Compositions and methods for improving the quality of processed sperm” (Inguran, LLC, priority 2011, dated 2019).
Where “and” joins values, the source holds several entries; their conditions need not be identical. Equal entries are not always repeated.

What was measured:
[1] = tested on: slaughterhouse oocytes fertilized with sex sorted sperm; assay: IVF: development of eggs fertilized with OSR treated sex sorted sperm; assay type: cell-based, bovine; conditions: 3 step
Method: 1. Oocyte Collection. Collect slaughterhouse oocytes, wash 1× with about 3 mL Hepes washing media and with 1× with TCM-199 (Invitrogen, Carlsbad, Calif.)+10% Fetal Bovine Serum (FBS). Culture in maturation media for 22 hrs in a CO2 incubator at 38.5° C. In one embodiment, the maturation media contains TCM-199, FBS, pyruvate, chorionic gonadotropin (e.g., Chorulon (Intervet, Summit N.J.)), follicle stimulating hormone (FSH) (e.g., Folltropin (Bioniche, Belleville, Canada)), estradiol, and at least one antibiotic. In a further embodiment, Amikacin (Sigma-Aldrich, St. Louis, Mo.) can be used as the antibiotic. In another embodiment, the maturation media may also comprise luteinizing hormone.
2. In Vitro Fertilization. Trim away cumulus cells from matured oocytes. Transfer them to a fertilization dish and return to the CO2 incubator. Thaw frozen semen straws using standard procedures, centrifuge in […], of Pure Sperm gradient (Nidacon, Molndal, Sweden), or a percoll or similar gradient at 2500 RPM for 10 minutes to remove egg components, glycerol and other debris. Remove supernatant, leaving a loose pellet of live sperm. Combine pellets using a small amount of fertilization media and repellet at 1500 RPM for 3 minutes. Carefully remove supernatant. Then gently mix the pellet. After determining the desired insemination dose, inseminate the oocytes by adding sperm to the pellet, then culture in a dish and return to the CO2 incubator for about 18-22 hours.
3. In Vitro Culture. Remove presumptive zygotes from the fertilization dish and transfer into a sterile 1.5 mL eppendorf tube. Allow zygotes to form a loose pellet and remove excess media to form a 1:1 ratio of pellet and solution. Rinse the eppendorf tube with TCM-199, place contents into a dish and wash with BSA media. Then culture presumptive zygotes (discard disfigured oocytes, as well as oocytes with yellow colored cytoplasm or vacuolated cytoplasm) in a dual gas incubator (5% CO2, 5% O2) at 38.5° C. for about 48 hours.
4. Co-Culture. Transfer cleaved zygotes to co-culture dishes comprising the cumulus cells from the mature oocytes and FBS media topped with mineral oil, and incubate in a CO2 incubator at 38.5° C. until needed.
An experiment was designed to test the effect of OSR treated sperm cells on the development of eggs fertilized with those sperm cells. In this experiment, bull semen from two bulls was sex sorted with flow cytometry, with vitamin B12 present at equal concentrations in the media used to stain the sperm cells, in the catch fluid of the collecting vessel and in the cryoprotectant extender prior to freezing the sex sorted sample (3 step). For each bull, three different concentrations of vitamin B12 were tested: 0.05 mg/ml, 0.15 mg/ml and 0.25 mg/ml. The control samples were not treated with vitamin B12.
Slaughterhouse oocytes were collected and washed 1× with about 3 mL Hepes washing media and with 1× with TCM-199+10% FBS. The oocytes were then cultured in maturation media for 22 hrs in a CO2 incubator at 38.5° C. Cumulus cells were trimmed away from matured oocytes, transferred to a fertilization dish, and returned to the CO2 incubator.
Frozen semen straws were thawed using standard procedures and centrifuged in […], of Pure Sperm gradient at 2500 RPM for 10 minutes in order to remove egg, glycerol and other debris. The supernatant was removed, leaving a loose pellet of live sperm. Pellets were combined using a small amount of fertilization media and repelleted at 1500 RPM for 3 minutes. The supernatant was then carefully removed and the pellet gently mixed. After determining the desired insemination dose, the matured oocytes were then inseminated by adding sperm to the pellet, cultured in a dish and returned to the CO2 incubator for about 18-22 hours.
Presumptive zygotes were removed from the fertilization dish and transferred into a sterile 1.5 ml eppendorf tube. […]

[2] = tested on: sex-sorted sperm; assay: DNA fragmentation of sex-sorted sperm (Halomax for animals kit); assay type: cell-based, cattle
Method: The levels of DNA fragmentation were also screened using a DNA fragmentation ‘Halomax for animals’ kit (Halotech DNA, sl, Madrid, Spain) to determine if there were any advantageous effects of using the antioxidants during the staining and processing of sex-sorted sperm. Two different breeds of cattle, Jersey and Holstein, were examined using two different concentrations of antioxidant, 0.25 mg/ml and 0.5 mg/ml of vitamin B12 with the 3 step protocol adding the same concentration of OSR during cell staining, in the collection catch fluid and prior to cryopreservation. One of the bulls was used to evaluate the effect of addition or omission of OSR at one or more of the sperm sorting steps. Motility and the level of DNA fragmentation were both recorded.

[3] = 0.05 mg/ml, Table 4 replicates, Bulls A, B
[4] = 0.5 mg/ml, Table 5 Total/Avg per bull (A Holstein, B Jersey), Holstein bull
[5] = 0.5 mg/ml, Table 5 Total/Avg per bull (A Holstein, B Jersey), Jersey bull
[6] = 0.5 mg/ml, Table 5 replicates, Bull A (Holstein), Bull B (Jersey), Holstein bull
[7] = 0.5 mg/ml, Table 5 replicates, Bull A (Holstein), Bull B (Jersey), Jersey bull

Question: What does the source list for vitamin B12?
Answer: 4-2C, Total/Avg ([1]; 0.05 mg/ml, Table 4 Total/Avg per bull (A, B)): 66 and 63; 4-2C (zygotes at 2 cell to 4 cell transition 48 hours after IVF) [1, 3]: 20 (2×) and 26 and 18 and 23 and 22; 8C % (zygotes having 8 cells 48 hours after IVF) [1, 3]: 3.4% and 9.5% and 11.7% and 44.4% and 29.3% and 29.0%; 8C (zygotes with 8 cells 48 hours after IVF) [1, 3]: 3 and 9 and 11 and 40 and 27 (2×); % Clv (percent cleaved 48 hours after IVF) [1, 3]: 26.4% and 36.8% and 33.0% and 64.4% and 54.3% and 52.7%; Blast % (cultured zygotes resulting in blastocyst formation) [1, 3]: 1.1% and 2.1% and 4.3% and 21.1% and 16.3% and 22.6%; C1 (expanded, hatching and hatched blastocysts 7 days after IVF) [1, 3]: 0 (2×) and 1 and 2 and 4 and 5; C1− (blastocysts 7 days after IVF) [1, 3]: 0 (2×) and 3 (2×) and 4 and 2; C2 (early blastocysts and compact morulas 7 days after IVF) [1, 3]: 1 (3×) and 13 (2×) and 9; Hatch # (embryos shedding the zona, 8.5 days after IVF) [1, 3]: 0 and 1 (2×) and 9 and 7 and 8; Hatch % (embryos that shed the zona) [1, 3]: 0.0% and 50.0% and 25.0% and 47.4% and 46.7% and 38.1%; Total Embs (total number of blastocysts) [1, 3]: 1 and 2 and 4 and 19 and 15 and 21; 4-2C, Total/Avg [1, 4]: 72; 8C %, Total/Avg [1, 4]: 35.1%; 8C, Total/Avg [1, 4]: 99; C1−, Total/Avg [1, 4]: 17; C2, Total/Avg [1, 4]: 18; Hatch #, Total/Avg [1, 4]: 16; Total Embs, Total/Avg [1, 4]: 41; 4-2C, Total/Avg [1, 5]: 86; 8C %, Total/Avg [1, 5]: 35.4%; 8C, Total/Avg [1, 5]: 104; C1−, Total/Avg [1, 5]: 22; C2, Total/Avg [1, 5]: 13; Hatch #, Total/Avg [1, 5]: 20; Total Embs, Total/Avg [1, 5]: 52; 4-2C (zygotes at 2 cell to 4 cell transition 48 hours after IVF) [1, 6]: 25 and 29 and 18; 8C % (zygotes having 8 cells 48 hours after IVF) [1, 6]: 36.2% and 31.6% and 37.6%; 8C (zygotes with 8 cells 48 hours after IVF) [1, 6]: 34 and 30 and 35; % Clv (percent cleaved 48 hours after IVF) [1, 6]: 62.8% and 62.1% and 57.0%; Blast % (cultured zygotes resulting in blastocyst formation) [1, 6]: 6.4% and 15.8% and 21.5%; C1 (expanded, hatching and hatched blastocysts 7 days after IVF) [1, 6]: 0 and 1 and 5; C1− (blastocysts 7 days after IVF) [1, 6]: 3 and 7 (2×); C2 (early blastocysts and compact morulas 7 days after IVF) [1, 6]: 3 and 7 and 8; Hatch # (embryos shedding the zona, 8.5 days after IVF) [1, 6]: 1 and 4 and 11; Hatch % (embryos that shed the zona) [1, 6]: 16.7% and 26.7% and 55.0%; Total Embs (total number of blastocysts) [1, 6]: 6 and 15 and 20; 4-2C (zygotes at 2 cell to 4 cell transition 48 hours after IVF) [1, 7]: 40 and 31 and 15; 8C % (zygotes having 8 cells 48 hours after IVF) [1, 7]: 34.0% and 25.3% and 46.5%; 8C (zygotes with 8 cells 48 hours after IVF) [1, 7]: 34 and 24 and 46; % Clv (percent cleaved 48 hours after IVF) [1, 7]: 74.0% and 57.9% and 61.6%; Blast % (cultured zygotes resulting in blastocyst formation) [1, 7]: 11.0% and 24.2% and 18.2%; C1 (expanded, hatching and hatched blastocysts 7 days after IVF) [1, 7]: 4 and 5 and 8; C1− (blastocysts 7 days after IVF) [1, 7]: 6 and 11 and 5; C2 (early blastocysts and compact morulas 7 days after IVF) [1, 7]: 1 and 7 and 5; Hatch # (embryos shedding the zona, 8.5 days after IVF) [1, 7]: 5 and 6 and 9; Hatch % (embryos that shed the zona) [1, 7]: 45.5% and 26.1% and 50.0%; Total Embs (total number of blastocysts) [1, 7]: 11 and 23 and 18; % DNA Fragmentation ([2]; 0 hr, 1 step-stain (+−−), Bull C (Jersey), Trial 1): 0.7%; % DNA Fragmentation ([2]; 0 hr, 1 step-stain (+−−), Bull C (Jersey), Trial 2): 0.7%; % DNA Fragmentation ([2]; 0 hr, 2 step-stain (++−), Bull C (Jersey), Trial 1): 0.3%; % DNA Fragmentation ([2]; 0 hr, 2 step-stain (++−), Bull C (Jersey), Trial 2): 0.3%; % DNA Fragmentation ([2]; 0 hr, 3 step (+++), Bull C (Jersey), Trial 1): 0%; % DNA Fragmentation ([2]; 0 hr, 3 step (+++), Bull C (Jersey), Trial 2): 0.3%; % DNA Fragmentation ([2]; 0 hr, vitamin B12 0.5 mg/ml, 3 step, Bull A (Jersey)): 0.3%; % DNA Fragmentation ([2]; 0 hr, vitamin B12 0.5 mg/ml, 3 step, Bull B (Holstein)): 0.3%; % DNA Fragmentation ([2]; 24 hr, 1 step-stain (+−−), Bull C (Jersey), Trial 1): 1%; % DNA Fragmentation ([2]; 24 hr, 1 step-stain (+−−), Bull C (Jersey), Trial 2): 1%; % DNA Fragmentation ([2]; 24 hr, 2 step-stain (++−), Bull C (Jersey), Trial 1): 1%; % DNA Fragmentation ([2]; 24 hr, 2 step-stain (++−), Bull C (Jersey), Trial 2): 0.7%; % DNA Fragmentation ([2]; 24 hr, 3 step (+++), Bull C (Jersey), Trial 1): 0.3%; % DNA Fragmentation ([2]; 24 hr, 3 step (+++), Bull C (Jersey), Trial 2): 0.3%; % DNA Fragmentation ([2]; 24 hr, vitamin B12 0.5 mg/ml, 3 step, Bull A (Jersey)): 0.7%; % DNA Fragmentation ([2]; 24 hr, vitamin B12 0.5 mg/ml, 3 step, Bull B (Holstein)): 0.3%; % DNA Fragmentation ([2]; 48 hr, 1 step-stain (+−−), Bull C (Jersey), Trial 1): 1.3%; % DNA Fragmentation ([2]; 48 hr, 1 step-stain (+−−), Bull C (Jersey), Trial 2): 1%; % DNA Fragmentation ([2]; 48 hr, 2 step-stain (++−), Bull C (Jersey), Trial 1): 1%; % DNA Fragmentation ([2]; 48 hr, 2 step-stain (++−), Bull C (Jersey), Trial 2): 0.7%; % DNA Fragmentation ([2]; 48 hr, 3 step (+++), Bull C (Jersey), Trial 1): 0.3%; % DNA Fragmentation ([2]; 48 hr, 3 step (+++), Bull C (Jersey), Trial 2): 0.7%; % DNA Fragmentation ([2]; 48 hr, vitamin B12 0.5 mg/ml, 3 step, Bull A (Jersey)): 1.3%; % DNA Fragmentation ([2]; 48 hr, vitamin B12 0.5 mg/ml, 3 step, Bull B (Holstein)): 0.7%
